Reference: patent US11746100B2 (GLOBAL BLOOD THERAPEUTICS, INC., priority 2020, dated 2023)

What follows are molecules tested against T1, human ferroportin (Homo sapiens, UniProt Q9NP59) (assay: Biological in-vitro ferroportin internalization assay (luciferase reporter)). Conditions: average pEC50; stably-transfected CHO cell line expressing human ferroportin tagged to a luciferase reporter; 6 h incubation with test compound.
T1 construct: luciferase reporter (read with the Nano-Glo Luciferase Assay System); expressed in transfected cells; host or cells: CHO cells, stably transfected, expression induced with doxycycline
T1 sequence (Q9NP59 1-571): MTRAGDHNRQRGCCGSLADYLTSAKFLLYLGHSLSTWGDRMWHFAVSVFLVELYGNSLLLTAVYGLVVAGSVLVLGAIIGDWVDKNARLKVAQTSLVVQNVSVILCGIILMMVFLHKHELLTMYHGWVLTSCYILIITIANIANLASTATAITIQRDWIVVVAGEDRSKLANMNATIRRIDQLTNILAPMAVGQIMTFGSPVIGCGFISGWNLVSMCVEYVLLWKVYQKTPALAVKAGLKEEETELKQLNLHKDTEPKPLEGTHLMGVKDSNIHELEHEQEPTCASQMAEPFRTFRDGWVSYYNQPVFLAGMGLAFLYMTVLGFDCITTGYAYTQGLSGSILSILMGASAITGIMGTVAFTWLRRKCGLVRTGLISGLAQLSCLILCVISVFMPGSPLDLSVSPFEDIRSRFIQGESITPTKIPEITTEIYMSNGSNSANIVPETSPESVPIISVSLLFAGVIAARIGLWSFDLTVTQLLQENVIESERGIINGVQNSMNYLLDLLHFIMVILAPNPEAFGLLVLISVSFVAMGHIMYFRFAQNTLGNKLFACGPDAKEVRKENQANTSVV
Format: cell-based
Procedure, shortened: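 Stably transfected CHO cells expressing luciferase-tagged human ferroportin, plated 24 h with ferric ammonium citrate and induced with doxycycline for 24 h. Compounds incubated 6 h, then luciferase activity measured by Nano-Glo; average pEC50 reported.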

SMILES | pEC50
COc1ccnc(-c2nc3c(c(N(C)CC(=O)N[C@@H]4CCOC4)n2)CCC3)c1 [Compound 372, 2-{[2-(4-methoxypyridin-2-yl)-5H,6H,7H-cyclopenta[d]pyrimidin-4-yl](methyl)amino}-N-[(3R)-oxolan-3-yl]acetamide] | 7.5
COCC(C)(C)NC(=O)CN(C)c1nc(-c2cc(OC)ccn2)nc2c1CCC2 [Compound 139, N-(1-methoxy-2-methylpropan-2-yl)-2-{[2-(4-methoxypyridin-2-yl)-5H,6H,7H-cyclopenta[d]pyrimidin-4-yl](methyl)amino}acetamide] | 7.5
O=C(CNc1nc(-c2ccccn2)nc2c1CCC2)Nc1ccc2cccnc2c1 [Compound 7, 2-{[2-(pyridin-2-yl)-5H,6H,7H-cyclopenta[d]pyrimidin-4-yl]amino}-N-(quinolin-7-yl)acetamide] | 6.6
CN(CC(=O)NC(C)(C)CO)c1nc(-c2ccccn2)nc2c1CCC2 [Compound 61, N-(1-hydroxy-2-methylpropan-2-yl)-2-{methyl[2-(pyridin-2-yl)-5H,6H,7H-cyclopenta[d]pyrimidin-4-yl]amino}acetamide] | 7.1
CN(c1nc(-c2ccccn2)nc2c1CCC2)[C@@H]1CCN(c2ccccc2)C1=O [Compound 130, (3R)-3-{methyl[2-(pyridin-2-yl)-5H,6H,7H-cyclopenta[d]pyrimidin-4-yl]amino}-1-phenylpyrrolidin-2-one] | 6.9
C[C@H](C(=O)NC(C)(C)C)N(C)c1nc(-c2cc(OC3COC3)ccn2)nc2c1CCC2 [Compound 305] | 7.8
CN(CC(=O)NC(C)(C)C)c1nc(-c2ccc(CCO)cn2)nc2c1CCC2 [Compound 43, N-tert-butyl-2-({2-[5-(2-hydroxyethyl)pyridin-2-yl]-5H,6H,7H-cyclopenta[d]pyrimidin-4-yl}(methyl)amino)acetamide] | 7
COc1ccnc(-c2nc3c(c(N(C)CC(=O)NC(C)(C)C)n2)CCC3)c1 [Compound 34, N-tert-butyl-2-{[2-(4-methoxypyridin-2-yl)-5H,6H,7H-cyclopenta[d]pyrimidin-4-yl](methyl)amino}acetamide] | 7.9
O=C(CNc1nc(-c2ccccn2)nc2c1CCC2)Nc1ccccn1 [Compound 5, N-(pyridin-2-yl)-2-{[2-(pyridin-2-yl)-5H,6H,7H-cyclopenta[d]pyrimidin-4-yl]amino}acetamide] | 6.2
COc1cccnc1-c1nc2c(c(N(C)CC(=O)NC(C)(C)C)n1)CCC2 [Compound 180, N-tert-butyl-2-{[2-(3-methoxypyridin-2-yl)-5H,6H,7H-cyclopenta[d]pyrimidin-4-yl](methyl)amino}acetamide] | 5.2
CN(C)CCOc1ccnc(-c2nc3c(c(N(C)CC(=O)NCC(F)(F)F)n2)CCC3)c1 [Compound 478, 2-[(2-{4-[2-(dimethylamino)ethoxy]pyridin-2-yl}-5H,6H,7H-cyclopenta[d]pyrimidin-4-yl)(methyl)amino]-N-(2,2,2-trifluoroethyl)acetamide] | 7.6
C[C@@H](C(=O)NC(C)(C)C)N(C)c1nc(-c2ccccn2)nc2c1CCC2 [Compound 52, (2S)—N-tert-butyl-2-{methyl[2-(pyridin-2-yl)-5H,6H,7H-cyclopenta[d]pyrimidin-4-yl]amino}propanamide] | 6.8
CN(CC(=O)Nc1cnn(C)c1)c1nc(-c2cn(C)cn2)nc2c1CCC2 [Compound 220, N-(1-methyl-1H-pyrazol-4-yl)-2-{methyl[2-(1-methyl-1H-imidazol-4-yl)-5H,6H,7H-cyclopenta[d]pyrimidin-4-yl]amino}acetamide] | 7
COc1ccc(N2CCCN(c3nc(-c4ccccn4)nc4c3CCC4)CC2=O)cc1 [Compound 188, 1-(4-methoxyphenyl)-4-[2-(pyridin-2-yl)-5H,6H,7H-cyclopenta[d]pyrimidin-4-yl]-1,4-diazepan-2-one] | 6.7
CN(CC(=O)NC(C)(C)C)c1nc(-c2ccc(F)cn2)nc2c1CCC2 [Compound 299, N-tert-butyl-2-{[2-(5-fluoropyridin-2-yl)-5H,6H,7H-cyclopenta[d]pyrimidin-4-yl](methyl)amino}acetamide] | 6.1

The next lines start with the values.

pEC50 | SMILES
7.2 | COc1ccnc(-c2nc3c(c(N(C)CC(=O)N[C@H]4CCC[C@H]4O)n2)CCC3)c1 [Compound 171, N-[(1S,2R)-2-hydroxycyclopentyl]-2-{[2-(4-methoxypyridin-2-yl)-5H,6H,7H-cyclopenta[d]pyrimidin-4-yl](methyl)amino}acetamide]
8.4 | COc1ccc2c(c1)CCN2C(=O)CN(C)c1nc(-c2cc(OCCO)ccn2)nc2c1CCC2 [Compound 335, 2-({2-[4-(2-hydroxyethoxy)pyridin-2-yl]-5H,6H,7H-cyclopenta[d]pyrimidin-4-yl}(methyl)amino)-1-(5-methoxy-2,3-dihydro-1H-indol-1-yl)ethan-1-one]
7.3 | CCN(CC(=O)NC(C)(C)C)c1nc(-c2ccccn2)nc2c1CCC2 [Compound 36, N-tert-butyl-2-{ethyl[2-(pyridin-2-yl)-5H,6H,7H-cyclopenta[d]pyrimidin-4-yl]amino}acetamide]
7.9 | CN(CC(=O)Nc1ccc(Cl)cc1)c1nc(-c2cc(OC3COC3)ccn2)nc2c1CCC2 [Compound 325, N-(4-chlorophenyl)-2-[methyl({2-[4-(oxetan-3-yloxy)pyridin-2-yl]-5H,6H,7H-cyclopenta[d]pyrimidin-4-yl})amino]acetamide]
7.9 | CC(C)NC(=O)CN(C)c1nc(-c2cc(OCC(C)(C)O)ccn2)nc2c1CCC2 [Compound 389, 2-({2-[4-(2-hydroxy-2-methylpropoxy)pyridin-2-yl]-5H,6H,7H-cyclopenta[d]pyrimidin-4-yl}(methyl)amino)-N-(propan-2-yl)acetamide]
7.7 | CN(CC(=O)N(C)C(C)(C)C)c1nc(-c2cc(OC3COC3)ccn2)nc2c1CCC2 [Compound 322, N-tert-butyl-N-methyl-2-[methyl({2-[4-(oxetan-3-yloxy)pyridin-2-yl]-5H,6H,7H-cyclopenta[d]pyrimidin-4-yl})amino]acetamide]
6.6 | COc1ccc(NC(=O)CN(C)c2nc(-c3cc(OC(F)(F)F)ccn3)nc3c2CCC3)cn1 [Compound 230, N-(6-methoxypyridin-3-yl)-2-[methyl({2-[4-(trifluoromethoxy)pyridin-2-yl]-5H,6H,7H-cyclopenta[d]pyrimidin-4-yl})amino]acetamide]
6.8 | CCn1cnc(-c2nc3c(c(N(C)CC(=O)NC(C)(C)C)n2)CCC3)c1 [Compound 193, N-tert-butyl-2-{[2-(1-ethyl-1H-imidazol-4-yl)-5H,6H,7H-cyclopenta[d]pyrimidin-4-yl](methyl)amino}acetamide]
7 | COc1ccc(NC(=O)CN(C)c2nc(-c3cc4ncccc4cn3)nc3c2CCC3)cn1 [Compound 257, N-(6-methoxypyridin-3-yl)-2-{methyl[2-(1,6-naphthyridin-7-yl)-5H,6H,7H-cyclopenta[d]pyrimidin-4-yl]amino}acetamide]
7.3 | CN(CC(=O)Nc1ccc(F)cc1)c1nc(-c2cc3cnn(C)c3cn2)nc2c1CCC2 [Compound 313, N-(4-fluorophenyl)-2-[methyl(2-{1-methyl-1H-pyrazolo[3,4-c]pyridin-5-yl}-5H,6H,7H-cyclopenta[d]pyrimidin-4-yl)amino]acetamide]
6.1 | Cc1ccc(NC(=O)CN(C)c2nc(-c3ccc(F)cn3)nc3c2CCC3)cn1 [Compound 298, 2-{[2-(5-fluoropyridin-2-yl)-5H,6H,7H-cyclopenta[d]pyrimidin-4-yl](methyl)amino}-N-(6-methylpyridin-3-yl)acetamide]
7.8 | C[C@@H](O)COc1ccnc(-c2nc3c(c(N(C)CC(=O)NC4(C)CCC4)n2)CCC3)c1 [Compound 377, 2-[(2-{4-[(2R)-2-hydroxypropoxy]pyridin-2-yl}-5H,6H,7H-cyclopenta[d]pyrimidin-4-yl)(methyl)amino]-N-(1-methylcyclobutyl)acetamide]
7.7 | C[C@H](CN(C)C)Oc1ccnc(-c2nc3c(c(N(C)CC(=O)NC(C)(C)C)n2)CCC3)c1 [Compound 406, N-tert-butyl-2-{[2-(4-{[(2R)-1-(dimethylamino)propan-2-yl]oxy}pyridin-2-yl)-5H,6H,7H-cyclopenta[d]pyrimidin-4-yl](methyl)amino}acetamide]
7.9 | CN(CC(=O)NC(C)(C)C)c1nc(-c2cc(OCC3COC3)ccn2)nc2c1CCC2 [Compound 211, N-tert-butyl-2-[methyl(2-{4-[(oxetan-3-yl)methoxy]pyridin-2-yl}-5H,6H,7H-cyclopenta[d]pyrimidin-4-yl)amino]acetamide]
8 | CN(C)CCOc1ccnc(-c2nc3c(c(N(C)CC(=O)NC(C)(C)C)n2)C(C)(C)CC3)c1 [Compound 413, N-tert-butyl-2-[(2-{4-[2-(dimethylamino)ethoxy]pyridin-2-yl}-5,5-dimethyl-5H,6H,7H-cyclopenta[d]pyrimidin-4-yl)(methyl)amino]acetamide]
